Measurements as given in patent publication US20180127464A1, “NOVEL EPHA4 INHIBITORS TARGETING ITS LIGAND BINDING DOMAIN” (Sanford-Burnham Medical Research Institute, priority 2015, published 2018).
Values belong to the molecule of their own block, whether it stands above or below them. Where a SMILES comes first, the peptide text is derived from it. [ ]: non-standard residue; d: D form. Trp(5-OH) = N[C@@H](Cc1c[nH]c2ccc(O)cc12)C(=O)O; Phe(4-Cl) = N[C@@H](Cc1ccc(Cl)cc1)C(=O)O; 4Pal = N[C@@H](Cc1ccncc1)C(=O)O; Ava = NCCCCC(=O)O

Columns and labels:
[1] = target: T1, EphA4 LBD (Homo sapiens, UniProt P54764); experiment: Fluorescence polarization assay (FPA), displacement of FITC-labeled KYL peptide; format: binding; conditions: PBS pH 7.2
Procedure: Fluorescence Polarization Assay (FPA):
The EphA4 binding KYL peptide ([…], Murai et al. Mol. Cell. Neurosci. 2003, 24:1000-1011) was labeled at the N-terminus with fluorescein isothiocyanate (FITC) and purified by HPLC. For competitive binding assays, 1 μL of 200 μM EphA4 LBD was pre-incubated with the tested compounds at various concentrations in 98 μL PBS (pH=7.2) in 96-well black plates at room temperature for 10 min, and then 1 μL of 500 μM FITC labeled EphA4 peptide was added to produce a final volume of 100 μL. The KYL and DMSO were incubated in each assay as positive and negative controls, respectively. After 30 min of incubation at room temperature, the polarization values in millipolarization units were measured at excitation/emission wavelengths of 480/535 nm with a multilabel plate reader (PerkinElmer, Waltham, Mass., USA). Ki value was determined by fitting the experimental data to a Sigmoidal dose-response (variable slope) nonlinear regression model (GraphPad Prism version 5.01 for Windows, GraphPad Software, San Diego, Calif., USA).
(§1) (B) EphA4-LBD was dissolved in 50 mM potassium phosphate buffer (pH 6.5), containing 100 mM NaCl. ITC were measured.
Target sequence in this assay (P54764 30-209 limits assumed): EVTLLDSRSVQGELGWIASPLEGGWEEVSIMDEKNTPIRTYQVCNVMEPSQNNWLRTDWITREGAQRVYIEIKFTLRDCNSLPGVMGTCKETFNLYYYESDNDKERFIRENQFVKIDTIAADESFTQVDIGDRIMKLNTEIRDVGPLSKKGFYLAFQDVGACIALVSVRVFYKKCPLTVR

[2] = target: EphA4 ligand binding domain (UniProt P54764); experiment: FPA, displacement of FITC-KYL peptide from EphA4 LBD; repeated experiments
[3] = target: EphA4 ligand binding domain (UniProt P54764); experiment: ITC; grade legend: A < 1 µM
[4] = target: EphA4 ligand binding domain (UniProt P54764); experiment: ITC
[5] = target: EphA4-LBD mutant 159G (UniProt P54764); experiment: ITC
[6] = target: EphA4-LBD mutant 159A (UniProt P54764); experiment: ITC
[7] = target: T1, EphA4 LBD; experiment: Isothermal titration calorimetry (ITC); format: binding; conditions: 25° C., PBS with 10% DMSO
Procedure: Isothermal Titration Calorimetry (ITC):
(§2) isothermal titration calorimetry (ITC) to measure binding constant was performed on a Model ITC200 calorimeter from Microcal/GE Life Sciences. When indicated, measurements were performed in a reverse way—i.e., the protein was titrated into the compound solution. A total of 8 μl EphA4 solution (1.65 mM) was injected into the cell containing 165 µM of compound per injection. All titrations were performed at 25° C. in PBS buffer supplemented with 10% DMSO. Experimental data were analyzed using Microcal Origin software provided by the ITC manufacturer (Microcal).
as §1

[8] = target: EphA4 ligand binding domain (UniProt P54764); experiment: FPA, displacement of FITC-KYL peptide from EphA4 LBD; grade legend: 5 µM ≤ C
[9] = target: 15N-labeled EphA4-LBD (Homo sapiens, UniProt P54764); experiment: 2D-[15N,1H]-HSQC NMR detection of binding; conditions: 300 K
Source text: NMR spectra of ^15N-labeled EphA4-LBD were acquired on 700 MHz Bruker Avance spectrometer equipped with TCI cryoprobe. All NMR data were processed and analyzed using TOPSPIN2.1 (Bruker Biospin Corp., Billerica, Mass., USA) and SPARKY3.1 (University of California, San Francisco, Calif., USA).

[10] = tested on: SOD1(G93A)-mutant mice; experiment: In vivo efficacy in an animal model of ALS
Procedure: Equal number of SOD1(G93A)-mutant mice of the same gender from same litter were randomly divided into two groups (n=12).
FIG. 3. […] The data were analyzed using the Kaplan-Meier method. Animal studies. Equal number of SOD1(G93A)-mutant mice of the same gender from same litter were randomly divided into two groups. […] Animals were assessed daily for the time of onset of hind limb tremor and loss of splay reflex. The endpoint was designated as the point when the mouse could no longer roll over within 10 s after being pushed onto its side. At this stage, mice were killed. Disease onset and survival time were compared using the Kaplan-Meier method. […] Values are given as mean±SD. Preliminary BBB penetration and PK studies were performed by Agilux (Cambridge, Mass.) and in house.

[11] = tested on: SOD1(G93A)-mutant mice; experiment: Pilot study for toxicity and dose in SOD1(G93A)-mutant mice; format: in vivo; conditions: 2 mice
[12] = target: EphA2 receptor (Homo sapiens, UniProt P29317); experiment: ITC with EphA2 receptor; format: binding; conditions: same experimental conditions as EphA4 ITC
Procedure: as §2

[13] = target: EphA4 (Homo sapiens, UniProt P54764); conditions: previously reported; cited from earlier work
Sequence of EphA4 (P54764 20-986, species assumed): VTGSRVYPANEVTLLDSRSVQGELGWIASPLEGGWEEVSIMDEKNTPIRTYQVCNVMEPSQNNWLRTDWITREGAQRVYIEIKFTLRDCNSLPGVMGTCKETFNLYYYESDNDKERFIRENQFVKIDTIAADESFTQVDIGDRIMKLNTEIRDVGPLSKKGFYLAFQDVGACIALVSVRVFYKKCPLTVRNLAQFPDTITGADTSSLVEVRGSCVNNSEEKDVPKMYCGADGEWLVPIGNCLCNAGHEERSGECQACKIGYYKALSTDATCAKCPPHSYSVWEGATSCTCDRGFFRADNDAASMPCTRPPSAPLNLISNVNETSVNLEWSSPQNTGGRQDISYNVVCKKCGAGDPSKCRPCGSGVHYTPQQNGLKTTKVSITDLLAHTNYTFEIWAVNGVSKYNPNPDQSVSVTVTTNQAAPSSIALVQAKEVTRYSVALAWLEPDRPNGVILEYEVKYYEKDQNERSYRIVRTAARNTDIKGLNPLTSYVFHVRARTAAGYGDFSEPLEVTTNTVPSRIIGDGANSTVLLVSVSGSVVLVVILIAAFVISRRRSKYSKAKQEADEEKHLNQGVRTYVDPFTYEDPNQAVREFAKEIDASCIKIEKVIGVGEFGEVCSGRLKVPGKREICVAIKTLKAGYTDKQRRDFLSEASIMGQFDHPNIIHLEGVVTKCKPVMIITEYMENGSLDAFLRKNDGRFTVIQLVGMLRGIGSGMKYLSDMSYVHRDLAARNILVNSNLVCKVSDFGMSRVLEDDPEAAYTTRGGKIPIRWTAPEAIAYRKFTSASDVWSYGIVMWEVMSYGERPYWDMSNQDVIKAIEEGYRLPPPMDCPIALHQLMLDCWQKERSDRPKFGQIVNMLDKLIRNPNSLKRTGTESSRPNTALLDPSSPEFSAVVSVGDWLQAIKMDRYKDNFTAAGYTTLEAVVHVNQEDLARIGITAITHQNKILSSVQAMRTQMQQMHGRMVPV

Sequence of EphA4 ligand binding domain (P54764 29-209 limits assumed): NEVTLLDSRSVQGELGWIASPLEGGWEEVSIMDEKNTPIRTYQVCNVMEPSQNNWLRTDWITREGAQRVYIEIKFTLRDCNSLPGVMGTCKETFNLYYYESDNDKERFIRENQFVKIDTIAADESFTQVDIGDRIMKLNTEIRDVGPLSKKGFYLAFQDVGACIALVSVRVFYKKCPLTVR
Sequence of 15N-labeled EphA4-LBD (P54764 30-209 limits assumed): as the sequence (P54764 30-209 limits assumed) above
Sequence of EphA2 receptor (P29317 24-976): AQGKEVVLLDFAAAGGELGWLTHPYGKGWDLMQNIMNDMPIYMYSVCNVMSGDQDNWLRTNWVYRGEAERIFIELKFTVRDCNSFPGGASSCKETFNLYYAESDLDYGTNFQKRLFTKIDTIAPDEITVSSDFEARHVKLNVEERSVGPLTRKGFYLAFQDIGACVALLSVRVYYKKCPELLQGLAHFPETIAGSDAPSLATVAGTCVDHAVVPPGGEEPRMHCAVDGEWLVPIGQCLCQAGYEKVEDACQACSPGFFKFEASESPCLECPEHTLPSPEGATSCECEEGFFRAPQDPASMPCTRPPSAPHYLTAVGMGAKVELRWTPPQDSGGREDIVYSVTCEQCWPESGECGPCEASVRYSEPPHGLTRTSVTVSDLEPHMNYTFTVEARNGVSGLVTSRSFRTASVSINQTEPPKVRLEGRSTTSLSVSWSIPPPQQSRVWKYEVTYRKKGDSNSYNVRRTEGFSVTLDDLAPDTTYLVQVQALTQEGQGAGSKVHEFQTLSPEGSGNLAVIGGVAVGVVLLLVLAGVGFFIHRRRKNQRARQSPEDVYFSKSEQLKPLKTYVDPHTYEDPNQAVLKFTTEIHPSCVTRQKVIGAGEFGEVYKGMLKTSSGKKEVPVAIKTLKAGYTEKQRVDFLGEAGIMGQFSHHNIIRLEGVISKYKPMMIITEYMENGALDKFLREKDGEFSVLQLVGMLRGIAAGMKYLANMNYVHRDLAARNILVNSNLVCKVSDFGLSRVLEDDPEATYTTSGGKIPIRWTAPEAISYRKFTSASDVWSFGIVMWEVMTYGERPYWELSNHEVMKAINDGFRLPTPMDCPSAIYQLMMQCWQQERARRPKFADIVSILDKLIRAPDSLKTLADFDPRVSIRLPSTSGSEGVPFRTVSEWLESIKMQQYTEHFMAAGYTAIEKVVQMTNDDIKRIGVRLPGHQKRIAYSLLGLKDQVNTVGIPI
Sequence of EphA4-LBD mutant 159A (P54764 other isoform, or with tags, fused parts or gaps mutant limits assumed): as the sequence (P54764 29-209 limits assumed) above, with I31A counted along it
Sequence of EphA4-LBD mutant 159G (P54764 other isoform, or with tags, fused parts or gaps mutant limits assumed): as the sequence (P54764 29-209 limits assumed) above, with I31G counted along it

Molecule: Compound 7: 4-amino-N-((S)-1-((S)-3-(4-chlorophenyl)-1-((S)-1-(2-(5-methoxy-1H-indol-3-yl)ethylamino)-1-oxo-3-(pyridin-4-yl)propan-2-ylamino)-1-oxopropan-2-ylamino)-3-(5-hydroxy-1H-indol-3-yl)-1-oxopropan-2-yl)butanamide (peptide)
Ki [2]: 500 to 660 nM | Kd [3]: < 1000 nM | Kd [4]: 450 nM | Kd [5]: 3660 nM | Kd [6]: 9090 nM

Molecule: NCCCC(=O)N[C@@H](Cc1c[nH]c2ccc(O)cc12)C(=O)N[C@@H](Cc1ccc(Cl)cc1)C(=O)N[C@@H](Cc1ccncc1)C(=O)NCCc1c[nH]c2ccc(O)cc12 [Compound 8, 4-amino-N-((S)-1-((S)-3-(4-chlorophenyl)-1-((S)-1-(2-(5-hydroxy-1H-indol-3-yl)ethylamino)-1-oxo-3-(pyridin-4-yl)propan-2-ylamino)-1-oxopropan-2-ylamino)-3-(5-hydroxy-1H-indol-3-yl)-1-oxopropan-2-yl)butanamide]
Ki [1]: 1000 to 5000 nM | Kd [7]: 1000 to 5000 nM

Molecule: COc1ccc2[nH]cc(CCNC(=O)[C@H](Cc3ccncc3)NC(=O)[C@H](Cc3ccc(Cl)cc3)NC(=O)[C@H](Cc3c[nH]c4ccc(O)cc34)NC(=O)CCCN)c2c1 [Compound 7, 4-amino-N-((S)-1-((S)-3-(4-chlorophenyl)-1-((S)-1-(2-(5-methoxy-1H-indol-3-yl)ethylamino)-1-oxo-3-(pyridin-4-yl)propan-2-ylamino)-1-oxopropan-2-ylamino)-3-(5-hydroxy-1H-indol-3-yl)-1-oxopropan-2-yl)butanamide]
Binding exchange regime by NMR [9]: slow exchange in the NMR time scale | Effect on disease onset ([10]; 30 mg/Kg i.p. daily in saline): without affecting the disease onset | Kaplan-Meier survival compared to control mice ([10]; 30 mg/kg daily i.p.): increased survival | Average survival time from disease onset to end point ([10]; 30 mg/kg daily i.p. from postnatal day 60, mean±SD, control 28.2±4.2 days, p<0.01): 38.6 ± 5.7 days | Average life span ([10]; 30 mg/kg daily i.p. from postnatal day 60, n=12, mean±SD, control 134.3±7.2 days, p<0.01): 142.8 ± 6.9 days | Signs of toxicity compared to control mice ([11]; 30 mg/Kg daily i.p. for several weeks): no adverse sign of toxicity were observed | Survival in pilot study ([11]; 30 mg/Kg daily i.p.): increased survival | Binding to the EphA2 receptor by ITC [12]: not observed

Molecule: KYLPYWPVLSSL
Kd for EphA4 (reported peptides) [13]: low micromolar range

Continued, values first:

Ki [1]: ≥ 5000 nM
Molecule: NCCCC(=O)N[C@@H](Cc1c[nH]c2ccc(O)cc12)C(=O)N[C@@H](Cc1ccc(Cl)cc1)C(=O)N[C@@H](Cc1ccncc1)C(=O)NCCc1cccc2ccccc12 [Compound 11, 4-amino-N-((S)-1-((S)-3-(4-chlorophenyl)-1-((S)-1-(2-(naphthalen-1-yl)ethylamino)-1-oxo-3-(pyridin-4-yl)propan-2-ylamino)-1-oxopropan-2-ylamino)-3-(5-hydroxy-1H-indol-3-yl)-1-oxopropan-2-yl)butanamide]

Ki [1]: 1000 to 5000 nM
Molecule: NCCCCC(=O)N[C@@H](Cc1c[nH]c2ccc(O)cc12)C(=O)N[C@@H](Cc1ccc(Cl)cc1)C(=O)N[C@@H](Cc1ccncc1)C(=O)N[C@H](Cc1c[nH]c2ccccc12)C(N)=O [Compound 4, 5-amino-N-((S)-1-((S)-1-((S)-1-((R)-1-amino-3-(1H-indol-3-yl)-1-oxopropan-2-ylamino)-1-oxo-3-(pyridin-4-yl)propan-2-ylamino)-3-(4-chlorophenyl)-1-oxopropan-2-ylamino)-3-(5-hydroxy-1H-indol-3-yl)-1-oxopropan-2-yl)pentanamide] (H-[Ava][Trp(5-OH)][Phe(4-Cl)][4Pal][dW]-NH2)

Ki [1]: 1000 to 5000 nM | Kd [7]: < 1000 nM
Molecule: COc1ccc2c(CCNC(=O)[C@H](Cc3ccncc3)NC(=O)[C@H](Cc3ccc(Cl)cc3)NC(=O)[C@H](Cc3c[nH]c4ccc(O)cc34)NC(=O)CCCN)c[nH]c2c1 [Compound 10, 4-amino-N-((S)-1-((S)-3-(4-chlorophenyl)-1-((S)-1-(2-(6-methoxy-1H-indol-3-yl)ethylamino)-1-oxo-3-(pyridin-4-yl)propan-2-ylamino)-1-oxopropan-2-ylamino)-3-(5-hydroxy-1H-indol-3-yl)-1-oxopropan-2-yl)butanamide]

Ki [8]: > 5000 nM
Molecule: Compound 11: 4-amino-N-((S)-1-((S)-3-(4-chlorophenyl)-1-((S)-1-(2-(naphthalen-1-yl)ethylamino)-1-oxo-3-(pyridin-4-yl)propan-2-ylamino)-1-oxopropan-2-ylamino)-3-(5-hydroxy-1H-indol-3-yl)-1-oxopropan-2-yl)butanamide (peptide)

Ki [1]: 1000 to 5000 nM
Molecule: NCCCC(=O)N[C@@H](Cc1c[nH]c2ccc(O)cc12)C(=O)N[C@@H](Cc1ccc(Cl)cc1)C(=O)N[C@@H](Cc1ccncc1)C(=O)NCCc1c[nH]c2ccc(Cl)cc12 [Compound 9, 4-amino-N-((S)-1-((S)-1-((S)-1-(2-(5-chloro-1H-indol-3-yl)ethylamino)-1-oxo-3-(pyridin-4-yl)propan-2-ylamino)-3-(4-chlorophenyl)-1-oxopropan-2-ylamino)-3-(5-hydroxy-1H-indol-3-yl)-1-oxopropan-2-yl)butanamide]

Ki [1]: 1000 to 5000 nM
Molecule: NCCCC(=O)N[C@@H](Cc1c[nH]c2ccc(O)cc12)C(=O)N[C@@H](Cc1ccc(Cl)cc1)C(=O)N[C@@H](Cc1ccncc1)C(=O)NCCc1c[nH]c2ccc(F)cc12 [Compound 6, 4-amino-N-((S)-1-((S)-3-(4-chlorophenyl)-1-((S)-1-(2-(5-fluoro-1H-indol-3-yl)ethylamino)-1-oxo-3-(pyridin-4-yl)propan-2-ylamino)-1-oxopropan-2-ylamino)-3-(5-hydroxy-1H-indol-3-yl)-1-oxopropan-2-yl)butanamide]

Ki [1]: 1000 to 5000 nM | Kd [7]: 1000 to 5000 nM
Molecule: NCCCC(=O)N[C@@H](Cc1c[nH]c2ccc(O)cc12)C(=O)N[C@@H](Cc1ccc(Cl)cc1)C(=O)N[C@@H](Cc1ccncc1)C(=O)NCCc1c[nH]c2ccccc12 [Compound 5, N-((S)-1-((S)-1-((S)-1-(2-(1H-indol-3-yl)ethylamino)-1-oxo-3-(pyridin-4-yl)propan-2-ylamino)-3-(4-chlorophenyl)-1-oxopropan-2-ylamino)-3-(5-hydroxy-1H-indol-3-yl)-1-oxopropan-2-yl)-4-aminobutanamide]
